Measurements from patent publication US4448777A, “1-Phenylindazole-3-one compounds, process and intermediates for their preparation, and pharmaceutical compositions containing same” (Kali-Chemie Pharma GmbH, priority 1981, dated 1984).

Tested on: passive cutaneous anaphylaxis (PCA)
Assay: Inhibition of passive cutaneous anaphylaxis (PCA test) in rats
Type: in vivo
Details: 10 minutes before intraperitoneal ovoalbumin and Evans blue, blue spot diameter after 30 minutes; for ED50: Rattus norvegicus, po, read-out: P.C.A. Inhibition ED50; for P.C.A. Inhibition ED50: oral
Protocol: For example, the substances have an inhibiting action on the release of endogenic mediators, from mast cells or basophilic leucocytes, which leads to allergic reactions. The doses to be used vary, of course, depending upon the nature of the substance used, upon the mode of administration and upon the condition to be treated. In general, however, satisfactory results are obtained in animal experiments with peroral doses of between 0.05 and 75 mg. per kg. of body weight. Thus, the new compounds have a specific inhibiting action in the PCA test (passive cutaneous anaphylaxis)in rats which is described below.
Description of the test method to determine the inhibition of passive cutaneous anaphylasis (PCA test, see Arch.int.pharmacology 252 (1981) 316-326)
To prepare the IgE-antiovoalbumin serum, used in this test, by the method of Mota (Immunology 7, (1964) 681) and J. Goose (Immunology 16 (1969) 749), male Wistar rats of 200-250 g. body weight were sensitised by subcutaneous injection of 1 mg. of ovoalbumin and 1 ml. of Bordetella pertussis suspension ("Vaxicoq" Merieux 3×10^10 organisms/ml). After 14 days, the animals are exsanguinated and the blood is centrifuged. The antiserum thus obtained is stored at […].
Non-sensitised rats were injected with in each case 0.1 ml. of antiserum into the skin at in each case four different sites on their shaven backs. After 72 hours, a solution of the test compound, or, for comparison, only the solvent, is administered orally, and 10 minutes later 5 mg. of ovoalbumin and 5 mg. of blue dye (Evans blue) in 0.9% strength sodium chloride solution are administered intraperitoneally. After 30 minutes, the animals are sacrificed and the diameters of the blue spots formed at the sites injected with the antiserum are measured. The inhibiting effect of the test substance is determined from the size of the blue spots which occur. […]

## O=c1c2ccccc2n(-c2ccccc2)n1CCCCN1CCN(c2ccccc2)CC1 [Example 12]
  ED50: 22 mg/kg

## O=c1c2ccccc2n(-c2ccccc2)n1CCCN1CCN(c2ccc(F)cc2)CC1 [Example 15]
  ED50: 10.6 mg/kg

## O=c1c2ccccc2n(-c2ccccc2)n1CCCCN1CCN(c2ccc(F)cc2)CC1 [Example 17]
  ED50: 17.9 mg/kg

## O=c1c2ccccc2n(-c2ccccc2)n1CCCCN1CCN(c2ccccn2)CC1 [Example 18]
  ED50: 25 mg/kg

## O=c1c2ccccc2n(-c2ccccc2)n1CCCN1CCN(c2ccccn2)CC1 [Example 19]
  ED50: 11.5 mg/kg

## Cc1ccnc(N2CCN(CCCCn3c(=O)c4ccccc4n3-c3ccccc3)CC2)c1 [Example 20]
  P.C.A. Inhibition ED50: 7.5 mg/kg

## Cc1ccnc(N2CCN(CCCn3c(=O)c4ccccc4n3-c3ccccc3)CC2)c1 [Example 21]
  ED50: 19.2 mg/kg

## COc1ccccc1N1CCN(CCCCn2c(=O)c3ccc(Cl)cc3n2-c2ccccc2)CC1 [Example 26]
  ED50: 22 mg/kg

## COc1ccc2c(c1)c(=O)n(CCCCN1CCN(c3cc(C)ccn3)CC1)n2-c1ccccc1 [Example 28]
  ED50: 5.7 mg/kg

## COc1ccc2c(c1)c(=O)n(CCCCN1CCN(c3ccccc3OC)CC1)n2-c1ccccc1 [Example 29]
  ED50: 14 mg/kg

## Cc1ccnc(N2CCN(CCCCn3c(=O)c4ccccc4n3-c3cccc(C(F)(F)F)c3)CC2)c1 [Example 32]
  ED50: 6.6 mg/kg

## Cc1ccnc(N2CCN(CCCCn3c(=O)c4ccccc4n3-c3ccccc3)CC2)c1 [Example 49]
  P.C.A. Inhibition ED50: 15.5 mg/kg
